Experimental data published in patent publication US20210128724A1 (priority 2019, published 2021).

B1: Galcanezumab (antibody, chains of the INN, looked up, V domains shown)
VH: QVQLVQSGAEVKKPGSSVKVSCKASGYTFGNYWMQWVRQAPGQGLEWMGAIYEGTGKTVYIQKFADRVTITADKSTSTAYMELSSLRSEDTAVYYCARLSDYVSGFGYWGQGTTVTVSS
VL: DIQMTQSPSSLSASVGDRVTITCRASKDISKYLNWYQQKPGKAPKLLIYYTSGYHSGVPSRFSGSGSGTDFTLTISSLQPEDFATYYCQQGDALPPTFGGGTKVEIK

What was measured:
[1] = test system: trigeminovascular Aδ-nociceptors, high threshold (HT) neurons, C-fiber and wide dynamic range (WDR) neurons; conditions: rat, in vivo
[2] = test system: C-fibers in the trigeminal ganglion; conditions: rat, in vivo
[3] = test system: Aδ-fibers in the trigeminal ganglion; conditions: rat, in vivo
[4] = test system: neurons in the trigeminal ganglion; conditions: rat, in vivo
[5] = design: species or system human; conditions: in vivo
[6] = design: species or system human; conditions: in vivo; for Development of post-traumatic syndrome after treatment within the first day after blast injury: sc

Row | Molecule | Activation of C-fiber and wide dynamic range (WDR) neurons [1] | Activation of trigeminovascular Aδ-nociceptors and high threshold (HT) neurons [1] | Baseline firing rate, C-fibers [2] [spikes/sec] | Effect on response to CSD in unmyelinated C-fibers [2] | Baseline firing rate, Aδ-neurons [3] [spikes/sec] | Effect on response to CSD in Aδ-neurons [3] | Baseline firing rate prior to CSD [4] [Hz] | Outcome after treatment following 1 month of symptoms after head injury [5] | Outcome after treatment promptly after head injury, before onset of symptoms [5] | Outcome after treatment once symptoms had developed after blast injury [6] | Development of post-traumatic syndrome after treatment within the first day after blast injury [6]
1 | fremanezumab | not | blocked the activation |  |  |  |  |  |  |  |  | 
2 | onabotulinumtoxinA [BoNT-A] |  |  | 0.7 | inhibited the response to CSD | 0.7 | no significant difference | 0.7 | headaches are lessened in severity and frequency, they experience improved sleep and improved cognition | continues to do well | headaches resolve a month after their treatment with decreased photophobia, dizziness, tinnitus and insomnia | do not develop any features of a post-traumatic syndrome
3 | B1 |  |  |  |  |  |  |  |  |  |  | do not develop any features of a post-traumatic syndrome
